{
  "source": "patent US20140357487A1",
  "about": "“PLANTS HAVING INCREASED TOLERANCE TO HERBICIDES” (BASF SE, priority 2011, published 2014)",
  "key": {"[1]": {"test_system": "Arabidopsis wildtype control plants", "test": "Arabidopsis growth inhibition in 48-well plates, wildtype control", "assay_type": "in vivo, Arabidopsis thaliana", "conditions": "plant growth IC50 of line divided by that of wildtype plants", "procedure": "Depending on the species, the plants are kept at 10-25° C. or 20-35° C. The test period extends over 3 weeks. During this time, the plants are tended and their response to the individual treatments is evaluated. Herbicide injury evaluations are taken at 2 and 3 weeks after treatment. Plant injury is rated on a scale of 0 to 9, 0 being no injury and 9 being complete death. Tolerance to coumarone-derivative herbicides can also be assessed in Arabidopsis. In this case transgenic Arabidopsis thaliana plants are assayed for improved tolerance to coumarone-derivative herbicides in 48-well plates. Seeds are surface sterilized by stirring for 5 min in ethanol+water (70+30 by volume), rinsing one time with ethanol+water (70+30 by volume) and two times with a sterile, deionized water. The seeds are resuspended in 0.1% agar dissolved in water (w/v). Four to five seeds per well are plated on solid nutrient medium consisting of half-strength Murashige Skoog nutrient solution, pH 5.8 (Murashige and Skoog (1962) Physiologia Plantarum 15: 473-497). […] Seven to ten days after seeding growth inhibition is evaluated by comparison to wild type plants. Tolerance factor is calculated by dividing the plant growth IC50 value of transgenic plants containing a HPPD and/or HST sequence by that of wildtype plants. […]"}, "[2]": {"test_system": "transgenic Arabidopsis plants overexpressing Synechocystis HPPD (Seq ID: 20)", "test": "Arabidopsis growth inhibition in 48-well plates, line overexpressing Synechocystis HPPD", "assay_type": "in vivo, Arabidopsis thaliana", "conditions": "Synechocystis (Seq ID: 20) overexpression line; plant growth IC50 of transgenic divided by that of wildtype plants", "source_text": "Various methods for the production of stably transformed plants are well known in the art. Coumarone-derivative herbicide tolerant soybean (Glycine max) or corn (Zea mays) plants can be produced by a method described by Olhoft et al. (US patent 2009/0049567). Briefly, HPPD or HST encoding polynucleotides are cloned into a binary vector using standard cloning techniques as described by Sambrook et al. (Molecular cloning (2001) Cold Spring Harbor Laboratory Press). The final vector construct contains an HPPD or HST encoding sequence flanked by a promoter sequence (e.g. the ubiquitin promoter (PcUbi) sequence) and a terminator sequence (e.g. the nopaline synthase terminator (NOS) sequence) and a resistance marker gene cassette (e.g. AHAS) (FIG. 2). Optionally, the HPPD or HST gene can provide the means of selection. Agrobacterium-mediated transformation is used to introduce the DNA into soybean's axillary meristem cells at the primary node of seedling explants. After inoculation and co-cultivation with Agrobacteria, the explants are transferred to shoot induction medium without selection for one week. […]\nDepending on the species, the plants are kept at 10-25° C. or 20-35° C. […] During this time, the plants are tended and their response to the individual treatments is evaluated. […] Tolerance to coumarone-derivative herbicides can also be assessed in Arabidopsis. […]"}, "[3]": {"test_system": "transgenic soybean plants, Arabidopsis HPPD, event SDS-9857", "test": "Greenhouse testing of transgenic soybean plants, Arabidopsis HPPD", "assay_type": "in vivo, Glycine max", "conditions": "soybean SDS-9857, 5 days after herbicide treatment, average of 8 T1", "source_text": "Various methods for the production of stably transformed plants are well known in the art. Coumarone-derivative herbicide tolerant soybean (Glycine max) or corn (Zea mays) plants can be produced by a method described by Olhoft et al. (US patent 2009/0049567). Briefly, HPPD or HST encoding polynucleotides are cloned into a binary vector using standard cloning techniques as described by Sambrook et al. (Molecular cloning (2001) Cold Spring Harbor Laboratory Press). The final vector construct contains an HPPD or HST encoding sequence flanked by a promoter sequence (e.g. the ubiquitin promoter (PcUbi) sequence) and a terminator sequence (e.g. the nopaline synthase terminator (NOS) sequence) and a resistance marker gene cassette (e.g. AHAS) (FIG. 2). Optionally, the HPPD or HST gene can provide the means of selection. Agrobacterium-mediated transformation is used to introduce the DNA into soybean's axillary meristem cells at the primary node of seedling explants. After inoculation and co-cultivation with Agrobacteria, the explants are transferred to shoot induction medium without selection for one week. The explants are subsequently transferred to shoot induction medium with 1-3 μM imazapyr (Arsenal) for 3 weeks to select for transformed cells. Explants with healthy callus/shoot pads at the primary node are then transferred to shoot elongation medium containing 1-3 μM imazapyr until a shoot elongates or the explant dies. After regeneration, transformants are transplanted to soil in small pots, placed in growth chambers (16 hr day/8 hr night; 25° C. day/23° C. night; 65% relative humidity; 130-150 mE m−2 s−1) and subsequently tested for the presence of the T-DNA via Taqman analysis. After a few weeks, healthy, transgenic positive, single copy events are transplanted to larger pots and allowed to grow in the growth chamber. Transformation of corn plants is done by a method described by McElver and Singh (WO 2008/124495). Plant transformation vector constructs containing HPPD or HST sequences are introduced into maize immature embryos via Agrobacterium-mediated transformation. Transformed cells are selected in selection media supplemented with 0.5-1.5 μM imazethapyr for 3-4 weeks. Transgenic plantlets are regenerated on plant regeneration media and rooted afterwards. Transgenic plantlets are subjected to TaqMan analysis for the presence of the transgene before being transplanted to potting mixture and grown to maturity in greenhouse. Arabidopsis thaliana is transformed with HPPD or HST sequences by floral dip method as described by McElver and Singh (WO 2008/124495). Transgenic Arabidopsis plants are subjected to Tag Man analysis for analysis of the number of integration loci. Transformation of Oryza sativa (rice) are done by protoplast transformation as described by Peng et al. (U.S. Pat. No. 6,653,529)\nTransgenic plants expressing heterologous HPPD or HST enzymes are tested for tolerance against coumarone-derivative herbicides in greenhouse experiments.\nFor post emergence treatment, the test plants are first grown to a height of 3 to 15 cm, depending on the plant habit, and only then treated with the herbicides. For this purpose, the test plants are either sown directly and grown in the same containers, or they are first grown separately and transplanted into the test containers a few days prior to treatment.\nDepending on the species, the plants are kept at 10-25° C. or 20-35° C. […] During this time, the plants are tended and their response to the individual treatments is evaluated. […] Tolerance to coumarone-derivative herbicides can also be assessed in Arabidopsis. In this case transgenic Arabidopsis thaliana plants are assayed for improved tolerance to coumarone-derivative herbicides in 48-well plates. Seeds are surface sterilized by stirring for 5 min in ethanol+water (70+30 by volume), rinsing one time with ethanol+water (70+30 by volume) and two times with a sterile, deionized water. […]"}},
  "data": [
    {"smiles": "CC1(C)c2cccnc2C(O)=C(c2ccc(Cl)nc2Cl)S1(=O)=O", "note": "[Inhibitor 2, 7-(2,6-dichloro-3-pyridyl)-5,5-dimethyl-6,6-dioxo-thiopyrano[4,3-b]pyridin-8-ol]", "values": [
      {"measurement": "Tolerance factor", "setting": "[1]", "value": 1},
      {"measurement": "Tolerance factor", "setting": "[2]", "value": 1},
      {"measurement": "Injury evaluation, scale of 1-100, bleaching phenotype", "setting": "[3]; 2.5 g/ha", "value": 1},
      {"measurement": "Injury evaluation, scale of 1-100, bleaching phenotype", "setting": "[3]; 10 g/ha", "value": 1},
      {"measurement": "Injury evaluation, scale of 1-100, bleaching phenotype", "setting": "[3]; 40 g/ha", "value": 2}
    ]},
    {"smiles": "Cc1c(C(=O)c2cnn(C)c2O)ccc(S(C)(=O)=O)c1C1=NOCC1", "note": "[Topramezone, reference compound]", "values": [
      {"measurement": "Injury evaluation, scale of 1-100, bleaching phenotype", "setting": "[3]; 6.25 g/ha", "value": 1},
      {"measurement": "Injury evaluation, scale of 1-100, bleaching phenotype", "setting": "[3]; 25 g/ha", "value": 10},
      {"measurement": "Injury evaluation, scale of 1-100, bleaching phenotype", "setting": "[3]; 100 g/ha", "value": 19}
    ]},
    {"smiles": "CC1=NOC(c2c(Cl)ccc(C3=C(O)c4ncccc4C(C)(C)S3(=O)=O)c2Cl)C1", "note": "(stereo not shown) [Inhibitor 1, 7-[2,4-dichloro-3-(3-methyl-4,5-dihydroisoxazol-5-yl)phenyl]-5,5-dimethyl-6,6-dioxo-thiopyrano[4,3-b]pyridin-8-ol]", "values": [
      {"measurement": "Tolerance factor", "setting": "[1]", "value": 1},
      {"measurement": "Tolerance factor", "setting": "[2]", "value": 1}
    ]}
  ]
}
